Test results as given in PMC4450297, “Screening Active Compounds from Garcinia Species Native to China Reveals Novel Compounds Targeting the STAT/JAK Signaling Pathway” (BioMed Research International, 2015).

Key:
Assay in all cases: Cell panel screen (CellTiter-Glo)
Format in all cases: cell-based, human
A498 = A498 (listed under Lung), 20 micromolar, 72 hrs
Procedure, shortened: (§1)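 Values are % growth inhibition: the signal of treated wells was set against untreated (DMSO) wells, with cell-free wells as background. Treatment lasted 72 h at 20 μM final compound, and ATP content was read by luminescence.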

A704 = A704 (Kidney), 20 micromolar, 72 hrs
Procedure, shortened: as §1

BT-474 = BT-474 (Breast), 20 micromolar, 72 hrs
Procedure, shortened: as §1

BT-549 = BT-549 (Breast), 20 micromolar, 72 hrs
Procedure, shortened: as §1

Bel-7402 = Bel-7402 (Liver), 20 micromolar, 72 hrs
Procedure, shortened: as §1

C3A = C3A (Liver), 20 micromolar, 72 hrs
Procedure, shortened: as §1

C8166 = C8166 (Leukemia), 20 micromolar, 72 hrs
Procedure, shortened: as §1

CCF-STTG1 = CCF-STTG1 (Brain), 20 micromolar, 72 hrs
Procedure, shortened: as §1

CW-2 = CW-2 (Colon), 20 micromolar, 72 hrs
Procedure, shortened: as §1

ChaGo-K-1 = ChaGo-K-1 (Lung), 20 micromolar, 72 hrs
Procedure, shortened: as §1

Colo 205 = settings: Colo 205, 20 micromolar, 72 hrs
Procedure, shortened: as §1

HCC1395 = HCC1395 (Breast), 20 micromolar, 72 hrs
Procedure, shortened: as §1

HCC1569 = HCC1569 (Breast), 20 micromolar, 72 hrs
Procedure, shortened: as §1

HCC1599 = HCC1599 (Breast), 20 micromolar, 72 hrs
Procedure, shortened: as §1

HCC1937 = HCC1937 (Breast), 20 micromolar, 72 hrs
Procedure, shortened: as §1

HEC-1-A = HEC-1-A (Uterus), 20 micromolar, 72 hrs
Procedure, shortened: as §1

HGC-27 = HGC-27 (Stomach), 20 micromolar, 72 hrs
Procedure, shortened: as §1

HPAF-II = HPAF-II (Pancreas), 20 micromolar, 72 hrs
Procedure, shortened: as §1

HT-1197 = HT-1197 (Urinary bladder), 20 micromolar, 72 hrs
Procedure, shortened: as §1

J82 = J82 (Urinary bladder), 20 micromolar, 72 hrs
Procedure, shortened: as §1

M059J = M059J (Brain), 20 micromolar, 72 hrs
Procedure, shortened: as §1

MSTO-211-H = MSTO-211-H (Lung), 20 micromolar, 72 hrs
Procedure, shortened: as §1

NCI-H1623 = NCI-H1623 (Lung), 20 micromolar, 72 hrs
Procedure, shortened: as §1

NCI-H1694 = NCI-H1694 (Lung), 20 micromolar, 72 hrs
Procedure, shortened: as §1

NCI-H1770 = NCI-H1770 (Lung), 20 micromolar, 72 hrs
Procedure, shortened: as §1

NCI-H2347 = NCI-H2347 (Lung), 20 micromolar, 72 hrs
Procedure, shortened: as §1

NCI-H2405 = NCI-H2405 (Lung), 20 micromolar, 72 hrs
Procedure, shortened: as §1

NCI-H28 = NCI-H28 (Lung), 20 micromolar, 72 hrs
Procedure, shortened: as §1

NCI-H524 = NCI-H524 (Lung), 20 micromolar, 72 hrs
Procedure, shortened: as §1

Panc 03.27 = Panc 03.27 (Pancreas), 20 micromolar, 72 hrs
Procedure, shortened: as §1

RL95 = RL95 (Uterus), 20 micromolar, 72 hrs
Procedure, shortened: as §1

SW13 = SW13 (Adrenal gland), 20 micromolar, 72 hrs
Procedure, shortened: as §1

T47D = T47D (Breast), 20 micromolar, 72 hrs
Procedure, shortened: as §1

T98G = T98G (Brain), 20 micromolar, 72 hrs
Procedure, shortened: as §1

TCCSUP = TCCSUP (Urinary bladder), 20 micromolar, 72 hrs
Procedure, shortened: as §1

ZR-75-30 = ZR-75-30 (Breast), 20 micromolar, 72 hrs
Procedure, shortened: as §1

SMILES	Percent Inhibition (A498)	Percent Inhibition (A704)	Percent Inhibition (BT-474)	Percent Inhibition (BT-549)	Percent Inhibition (Bel-7402)	Percent Inhibition (C3A)	Percent Inhibition (C8166)	Percent Inhibition (CCF-STTG1)	Percent Inhibition (CW-2)	Percent Inhibition (ChaGo-K-1)	Percent Inhibition (Colo 205)	Percent Inhibition (HCC1395)	Percent Inhibition (HCC1569)	Percent Inhibition (HCC1599)	Percent Inhibition (HCC1937)	Percent Inhibition (HEC-1-A)	Percent Inhibition (HGC-27)	Percent Inhibition (HPAF-II)	Percent Inhibition (HT-1197)	Percent Inhibition (J82)	further results
COc1c(CC=C(C)C)cc2c(=O)c3c(O)cc(O)cc3oc2c1OC [gl-6]	47%	27%	25%	14%	27%	41%	41%	45%	51%	59%	43%	44%	34%	42%	32%	40%	55%	36%	36%	52%	Percent Inhibition (M059J): 44%; Percent Inhibition (MSTO-211-H): 16%; Percent Inhibition (NCI-H1623): 14%; Percent Inhibition (NCI-H1694): 46%; Percent Inhibition (NCI-H1770): 23%; Percent Inhibition (NCI-H2347): 22%; Percent Inhibition (NCI-H2405): 25%; Percent Inhibition (NCI-H28): 39%; Percent Inhibition (NCI-H524): 9%; Percent Inhibition (Panc 03.27): 45%; Percent Inhibition (RL95): 46%; Percent Inhibition (SW13): 18%; Percent Inhibition (T47D): 31%; Percent Inhibition (T98G): 31%; Percent Inhibition (TCCSUP): 36%; Percent Inhibition (ZR-75-30): 90%
CC(C)=CCC/C(C)=C/Cc1c(O)c(CC=C(C)C)c2c(c1O)C(=O)C1=C[C@@H]3C[C@H]4C(C)(C)O[C@@](C/C=C(/C)C(=O)O)(C3=O)[C@@]14O2 [GB16]	100%	99%	99%	99%	99%	99%	100%	99%	99%	99%	99%	99%	99%	100%	100%	99%	100%	98%	99%	99%	Percent Inhibition (M059J): 99%; Percent Inhibition (MSTO-211-H): 100%; Percent Inhibition (NCI-H1623): 99%; Percent Inhibition (NCI-H1694): 100%; Percent Inhibition (NCI-H1770): 100%; Percent Inhibition (NCI-H2347): 98%; Percent Inhibition (NCI-H2405): 99%; Percent Inhibition (NCI-H28): 99%; Percent Inhibition (NCI-H524): 98%; Percent Inhibition (Panc 03.27): 99%; Percent Inhibition (RL95): 99%; Percent Inhibition (SW13): 99%; Percent Inhibition (T47D): 99%; Percent Inhibition (T98G): 99%; Percent Inhibition (TCCSUP): 100%; Percent Inhibition (ZR-75-30): 100%
COc1c(O)c(O)c2c(=O)c3c(CC=C(C)C)c(CC=C(C)C)c(O)c(O)c3oc2c1CC=C(C)C [Compound N-7]	13%	1%	-21%	-14%	15%	24%	10%	6%	22%	4%	9%	22%	5%	8%	-5%	-17%	0%	9%	13%	17%	Percent Inhibition (M059J): 10%; Percent Inhibition (MSTO-211-H): -1%; Percent Inhibition (NCI-H1623): -8%; Percent Inhibition (NCI-H1694): 25%; Percent Inhibition (NCI-H1770): -6%; Percent Inhibition (NCI-H2347): -18%; Percent Inhibition (NCI-H2405): -7%; Percent Inhibition (NCI-H28): 21%; Percent Inhibition (NCI-H524): -30%; Percent Inhibition (Panc 03.27): -24%; Percent Inhibition (RL95): -16%; Percent Inhibition (SW13): -14%; Percent Inhibition (T47D): -9%; Percent Inhibition (T98G): 17%; Percent Inhibition (TCCSUP): 18%; Percent Inhibition (ZR-75-30): -11%
CCOC(=O)C1OC(Oc2cc(O)c3c(c2)OC(c2ccc(O)c(O)c2)CC3=O)C(O)C(O)C1O (stereo not drawn) [gly-3]	-4%	-17%	-24%	-14%	-5%	-4%	-1%	-4%	4%	-13%	-6%	9%	-8%	-18%	3%	-19%	-11%	-7%	11%	-7%	Percent Inhibition (M059J): 1%; Percent Inhibition (MSTO-211-H): -3%; Percent Inhibition (NCI-H1623): 8%; Percent Inhibition (NCI-H1694): 1%; Percent Inhibition (NCI-H1770): -10%; Percent Inhibition (NCI-H2347): 4%; Percent Inhibition (NCI-H2405): -3%; Percent Inhibition (NCI-H28): -18%; Percent Inhibition (NCI-H524): -25%; Percent Inhibition (Panc 03.27): 2%; Percent Inhibition (RL95): 6%; Percent Inhibition (SW13): -5%; Percent Inhibition (T47D): -4%; Percent Inhibition (T98G): -3%; Percent Inhibition (TCCSUP): -1%; Percent Inhibition (ZR-75-30): 13%
CC1(C)C=Cc2c(cc(O)c3c(=O)c4cc5c(c(O)c4oc23)OC(C)(C)C=C5)O1 [Go-16]	12%	17%	-6%	-5%	15%	22%	13%	22%	17%	9%	4%	68%	11%	41%	25%	11%	28%	15%	35%	23%	Percent Inhibition (M059J): 31%; Percent Inhibition (MSTO-211-H): 34%; Percent Inhibition (NCI-H1623): 33%; Percent Inhibition (NCI-H1694): 5%; Percent Inhibition (NCI-H1770): 25%; Percent Inhibition (NCI-H2347): -8%; Percent Inhibition (NCI-H2405): 27%; Percent Inhibition (NCI-H28): 9%; Percent Inhibition (NCI-H524): -35%; Percent Inhibition (Panc 03.27): 20%; Percent Inhibition (RL95): -8%; Percent Inhibition (SW13): 6%; Percent Inhibition (T47D): 20%; Percent Inhibition (T98G): 29%; Percent Inhibition (TCCSUP): 44%; Percent Inhibition (ZR-75-30): 47%
